# Molecular target: CDK2/Cyclin E1 (Homo sapiens (Human), UniProt P24941)
# Assay: CDK2/Cyclin E1 HTRF enzyme activity assay
# Assay type: biochemical
# Conditions: 1 mM ATP; CDK2/Cyclin E1 0.25 nM; 60 minutes at room temperature
# Experimental: Example A. CDK2/Cyclin E1 HTRF Enzyme Activity Assay
# CDK2/Cyclin E1 enzyme activity assays utilize full-length human CDK2 co-expressed as N-terminal GST-tagged protein with FLAG-Cyclin E1 in a baculovirus expression system (Carna Product Number 04-165). Assays were conducted in white 384-well polystyrene plates in a final reaction volume of 8 μL. CDK2/Cyclin E1 (0.25 nM) was incubated with the compounds of the Examples (40 nL serially diluted in DMSO) in the presence of ATP (50 μM or 1 mM) and 50 nM ULight™-labeled eIF4E-binding protein 1 (THR37/46) peptide (PerkinElmer) in assay buffer (containing 50 mM HEPES pH 7.5, 1 mM EGTA, 10 mM MgCl2, 2 mM DTT, 0.05 mg/mL BSA, and 0.01% Tween 20) for 60 minutes at room temperature. The reactions were stopped by the addition of EDTA and Europium-labeled anti-phospho-4E-BP1 antibody (PerkinElmer), for a final concentration of 15 mM and 1.5 nM, respectively. HTRF signals were read after 1 hour at room temperature on a PHERAstar FS plate reader (BMG Labtech). Data was analyzed with IDBS XLFit and GraphPad Prism 5.0 software using a three or four parameter dose response curve to determine IC50 for each compound.
row,IC50,SMILES
1,≤ 0.02 µM,"CC(C)Oc1c(-c2cn[nH]c2)ncn2nc(N[C@H]3CCN(S(=O)(=O)CCCCN4CCOCC4)C[C@H]3C)nc12 [Example 63, 8-Isopropoxy-N-((3R,4S)-3-methyl-1-((4-morpholinobutyl)sulfonyl)piperidin-4-yl)-7-(1H-pyrazol-4-yl)-[1,2,4]triazolo[1,5-c]pyrimidin-2-amine]"
2,≤ 0.02 µM,"CC(C)Sc1c(-c2cn[nH]c2)ncc2nc(NC3CCN(S(C)(=O)=O)CC3)nn12 [Example 124, 5-(Isopropylthio)-N-(1-(methylsulfonyl)piperidin-4-yl)-6-(1H-pyrazol-4-yl)-[1,2,4]triazolo[1,5-a]pyrazin-2-amine]"
3,≤ 0.02 µM,"CC(C)Oc1c(-c2cn[nH]c2)ncn2nc(N[C@H]3CCN(S(=O)(=O)CCCN(C)C)C[C@H]3C)nc12 [Example 56, N-((3R,4S)-1-((3-(Dimethylamino)propyl)sulfonyl)-3-methylpiperidin-4-yl)-8-isopropoxy-7-(1H-pyrazol-4-yl)-[1,2,4]triazolo[1,5-c]pyrimidin-2-amine]"
4,≤ 0.02 µM,"CS(=O)(=O)N1CCC(Nc2nc3c(OCC4CCOC4)c(-c4cn[nH]c4)ccn3n2)CC1 (stereo not drawn) [Example 11, N-(1-(methylsulfonyl)piperidin-4-yl)-7-(1H-pyrazol-4-yl)-8-((tetrahydrofuran-3-yl)methoxy)-[1,2,4]triazolo[1,5-a]pyridin-2-amine]"
5,≤ 0.02 µM,"C[C@@H]1CN(S(C)(=O)=O)CC[C@@H]1Nc1nc2cnc(-c3cn[nH]c3)c(OC3CC3)n2n1 [Example 109, 5-Cyclopropoxy-N-((3R,4S)-3-methyl-1-(methylsulfonyl)piperidin-4-yl)-6-(1H-pyrazol-4-yl)-[1,2,4]triazolo[1,5-a]pyrazin-2-amine]"
6,≤ 0.02 µM,"[2H]C([2H])([2H])C([2H])(Oc1c(-c2cn[nH]c2)ncc2nc(N[C@H]3CCN(S(C)(=O)=O)C[C@H]3C)nn12)C([2H])([2H])[2H] [Example 139, N-((3R,4S)-3-Methyl-1-(methylsulfonyl)piperidin-4-yl)-5-((propan-2-yl-d7)oxy)-6-(1H-pyrazol-4-yl)-[1,2,4]triazolo[1,5-a]pyrazin-2-amine]"
7,≤ 0.02 µM,"C[C@@H]1CN(S(C)(=O)=O)CC[C@@H]1Nc1nc2ccc(-c3cn[nH]c3)c(OC3CCOCC3)n2n1 [Example 98, N-((3R,4S)-3-Methyl-1-(methylsulfonyl)piperidin-4-yl)-6-(1H-pyrazol-4-yl)-5-((tetrahydro-2H-pyran-4-yl)oxy)-[1,2,4]triazolo[1,5-a]pyridin-2-amine]"
8,≤ 0.02 µM,"C[C@H]1CCCCN1c1c(-c2cn[nH]c2)ncc2nc(NC3CCN(S(C)(=O)=O)CC3)nn12 [Example 132, (A)-5-(2-Methylpiperidin-1-yl)-N-(1-(methylsulfonyl)piperidin-4-yl)-6-(1H-pyrazol-4-yl)-[1,2,4]triazolo[1,5-a]pyrazin-2-amine]"
9,≤ 0.02 µM,"C[C@@H]1CN(S(C)(=O)=O)CC[C@@H]1Nc1nc2cnc(-c3cn[nH]c3)c(N3CCCC(F)(F)C3)n2n1 [Example 127, 5-(3,3-Difluoropiperidin-1-yl)-N-((3R,4S)-3-methyl-1-(methylsulfonyl)piperidin-4-yl)-6-(1H-pyrazol-4-yl)-[1,2,4]triazolo[1,5-a]pyrazin-2-amine]"
10,≤ 0.02 µM,"C[C@@H]1CN(S(=O)(=O)c2cnn(C)c2)CC[C@@H]1Nc1nc2ccc(-c3cn[nH]c3)c(OC3CCOCC3)n2n1 [Example 99, N-((3R,4S)-3-Methyl-1-((1-methyl-1H-pyrazol-4-yl)sulfonyl)piperidin-4-yl)-6-(1H-pyrazol-4-yl)-5-((tetrahydro-2H-pyran-4-yl)oxy)-[1,2,4]triazolo[1,5-a]pyridin-2-amine]"
11,≤ 0.02 µM,C[C@@H]1CN(S(C)(=O)=O)CC[C@@H]1Nc1nc2cnc(-c3cn[nH]c3)c(OC3CCOCC3)n2n1 [Example 90]
12,≤ 0.02 µM,"CCS(=O)(=O)N1CC[C@H](Nc2nc3ccc(-c4cn[nH]c4)c(OC(C)C)n3n2)[C@H](C)C1 [Example 96, N-((3R,4S)-1-(Ethylsulfonyl)-3-methylpiperidin-4-yl)-5-isopropoxy-6-(1H-pyrazol-4-yl)-[1,2,4]triazolo[1,5-a]pyridin-2-amine]"
13,≤ 0.02 µM,"CS(=O)(=O)N1CCC(Nc2nc3c(OCC(F)F)c(-c4cn[nH]c4)ncn3n2)CC1 [Example 45, 8-(2,2-difluoroethoxy)-N-(1-(methylsulfonyl)piperidin-4-yl)-7-(1H-pyrazol-4-yl)-[1,2,4]triazolo[1,5-c]pyrimidin-2-amine]"
14,≤ 0.02 µM,"CS(=O)(=O)N1CCC(Nc2nc3cnc(-c4cn[nH]c4)c(OC4CCOC(C(F)(F)F)C4)n3n2)CC1 (stereo not drawn) [Example 119, N-(1-(Methylsulfonyl)piperidin-4-yl)-6-(1H-pyrazol-4-yl)-5-((2-(trifluoromethyl)tetrahydro-2H-pyran-4-yl)oxy)-[1,2,4]triazolo[1,5-a]pyrazin-2-amine]"
15,≤ 0.02 µM,"CCCOc1c(-c2cn[nH]c2)ncc2nc(NC3CCN(S(C)(=O)=O)CC3)nn12 [Example 105, N-(1-(Methylsulfonyl)piperidin-4-yl)-5-propoxy-6-(1H-pyrazol-4-yl)-[1,2,4]triazolo[1,5-a]pyrazin-2-amine]"
16,≤ 0.02 µM,"CS(=O)(=O)N1CCC(Nc2nc3ccc(-c4cn[nH]c4)c(OCC4CC4)n3n2)CC1 [Example 82, 5-(Cyclopropylmethoxy)-N-(1-(methylsulfonyl)piperidin-4-yl)-6-(1H-pyrazol-4-yl)-[1,2,4]triazolo[1,5-a]pyridin-2-amine]"
17,≤ 0.02 µM,"CC(C)Oc1c(-c2cn[nH]c2)ncc2nc(NC3CCN(S(C)(=O)=O)CC3)nn12 [Example 141, 5-Isopropoxy-N-(1-(methylsulfonyl)piperidin-4-yl)-6-(1H-pyrazol-4-yl)-[1,2,4]triazolo[1,5-a]pyrazin-2-amine]"
18,≤ 0.02 µM,"C[C@@H]1CN(S(C)(=O)=O)CC[C@@H]1Nc1nc2ccc(-c3cn[nH]c3)c(OCC(F)(F)C(F)F)n2n1 [Example 73, N-((3R,4S)-3-Methyl-1-(methylsulfonyl)piperidin-4-yl)-6-(1H-pyrazol-4-yl)-5-(2,2,3,3-tetrafluoropropoxy)-[1,2,4]triazolo[1,5-a]pyridin-2-amine]"
19,≤ 0.02 µM,"C[C@@H]1CN(S(C)(=O)=O)CC[C@@H]1Nc1nc2cnc(-c3cn[nH]c3)c(OC3CCCC3)n2n1 [Example 140, 5-(Cyclopentyloxy)-N-((3R,4S)-3-methyl-1-(methylsulfonyl)piperidin-4-yl)-6-(1H-pyrazol-4-yl)-[1,2,4]triazolo[1,5-a]pyrazin-2-amine]"
20,≤ 0.02 µM,"[2H]C(C)(C)Oc1c(-c2cn[nH]c2)ncc2nc(N[C@H]3CCN(S(C)(=O)=O)C[C@H]3C)nn12 [Example 137, N-((3R,4S)-3-Methyl-1-(methylsulfonyl)piperidin-4-yl)-5-((propan-2-yl-2-d)oxy)-6-(1H-pyrazol-4-yl)-[1,2,4]triazolo[1,5-a]pyrazin-2-amine]"
21,≤ 0.02 µM,"CS(=O)(=O)N1CCC(Nc2nc3cnc(-c4cn[nH]c4)cn3n2)CC1 [Example 8, N-(1-(methylsulfonyl)piperidin-4-yl)-6-(1H-pyrazol-4-yl)-[1,2,4]triazolo[1,5-a]pyrazin-2-amine]"
22,≤ 0.02 µM,"CS(=O)(=O)N1CCC(Nc2nc3c(-c4cccc(C(F)(F)F)c4)c(-c4cn[nH]c4)ccn3n2)CC1 [Example 26, N-(1-(methylsulfonyl)piperidin-4-yl)-7-(1H-pyrazol-4-yl)-8-(3-(trifluoromethyl)phenyl)-[1,2,4]triazolo[1,5-a]pyridin-2-amine]"
23,≤ 0.02 µM,"C[C@@H]1CN(S(C)(=O)=O)CC[C@@H]1Nc1nc2cnc(-c3cn[nH]c3)c(OC3CCOC(C(F)(F)F)C3)n2n1 (stereo partly drawn) [Example 113, N-((3R,4S)-3-Methyl-1-(methylsulfonyl)piperidin-4-yl)-6-(1H-pyrazol-4-yl)-5-((2-(trifluoromethyl)tetrahydro-2H-pyran-4-yl)oxy)-[1,2,4]triazolo[1,5-a]pyrazin-2-amine]"

row,SMILES,IC50
1,"CC(C)COc1c(-c2ccnc3[nH]ccc23)ccn2nc(NC3CCN(S(C)(=O)=O)CC3)nc12 [Example 15, 8-isobutoxy-N-(1-(methylsulfonyl)piperidin-4-yl)-7-(1H-pyrrolo[2,3-b]pyridin-4-yl)-[1,2,4]triazolo[1,5-a]pyridin-2-amine]",≤ 0.02 µM
2,"C[C@@H]1CN(S(=O)(=O)c2cn(C)cn2)CC[C@@H]1Nc1nc2cnc(-c3cn[nH]c3)c(OC3CCC3)n2n1 [Example 95, 5-Cyclobutoxy-N-((3R,4S)-3-methyl-1-((1-methyl-1H-imidazol-4-yl)sulfonyl)piperidin-4-yl)-6-(1H-pyrazol-4-yl)-[1,2,4]triazolo[1,5-a]pyrazin-2-amine]",≤ 0.02 µM
3,"CC(C)COc1c(-c2cn[nH]c2)ncc2nc(NC3CCN(S(C)(=O)=O)CC3)nn12 [Example 104, 5-Isobutoxy-N-(1-(methylsulfonyl)piperidin-4-yl)-6-(1H-pyrazol-4-yl)-[1,2,4]triazolo[1,5-a]pyrazin-2-amine]",≤ 0.02 µM
4,"C[C@@H]1CN(S(C)(=O)=O)CC[C@@H]1Nc1nc2cnc(-c3cn[nH]c3)c(OC3CCC3)n2n1 [Example 100, 5-Cyclobutoxy-N-((3R,4S)-3-methyl-1-(methylsulfonyl)piperidin-4-yl)-6-(1H-pyrazol-4-yl)-[1,2,4]triazolo[1,5-a]pyrazin-2-amine]",≤ 0.02 µM

# Source: patent publication US11851426B2, “Bicyclic amines as CDK2 inhibitors” (Incyte Corporation, priority 2019, dated 2023)
